Laboratory results from article PMC9763021, “Comprehensive Assessment of Biomolecular Interactions of Morpholine-Based Mixed Ligand Cu(II) and Zn(II) Complexes of 2,2′-Bipyridine as Potential Anticancer and SARS-CoV-2 Agents: A Synergistic Experimental and Structure-Based Virtual Screening” (Bioinorganic Chemistry and Applications, 2022).

Columns and labels:
Bacillus cereus = experiment: Agar disc diffusion, strain G; format: cell-based; design: (inhibition %): concentration or dose not given beside the values; details: for diameter of the clear zone inhibition: control = 6 mm
Experimental: In-vitro antimicrobial properties were evaluated for all samples by the agar disc diffusion method towards different fungal and bacterial strains. Additionally, the reported inhibition zone values were comparatively analyzed with the standard antifungal drugs ketoconazole and amphotericin B as well as the standard antibiotic medications streptomycin and amikacin.
The current research has a curious focus on the in vitro antimicrobial properties of biological systems because these studies are crucial for developing effective antibacterial and antifungal medications. […] It can also be spelled out based on the chelation theory proposed by Overtone and Tweedy. Chelation theory points out that the partial exchanging of the positive charge of the metal center with donor moieties, and overlap of the ligand orbitals will reduce the greater degree of the metal ion's polarity, which ultimately rises the delocalization of π and d electrons over the full chelated ring system. By raising the size of the metal ion due to the retarding of polarization, chelation may also enhance the complexes' lipophilic characteristics, which further stimulate the lipid membrane permeability and break down the bacteria' enzymes responsible for cell wall formation, therefore slowing down the regular cell processes. By preventing the production of cell walls/proteins/DNA, including by obstructing folate metabolism and the cytoplasmic membrane, antimicrobial drugs frequently either fully eliminate microbes or only prevent their cell growth. Additionally, the samples' mode of action may be employed in disrupting the cell's respiration process by forming an H-bond during the morpholine-fused iminic group coordinated with the active metal center of its components, inhibiting proliferation of the cell. […] The difference in the antimicrobial efficacy of some of the compounds towards various microorganisms influences on the impermeability of the cells of the germs or the diversity of ribosomes of the microbes. The % of the inhibition of all substances is estimated from (45) (Table 9).
(A, B, C, D, and E are represented as gram negative bacteria species Escherichia coli, Salmonella enteric serovar typhi, Salmonella enteric serovar typhi, Pseudomonas aeruginosa, and Shigella flexneri, respectively. F & G are denoted as gram positive bacteria species Staphylococcus aureus and Bacillus cereus. H, I, and J are represented as fungal strains Aspergillus niger, Candida albicans, and Mucor indicus. Standard drugs for bacterial strains: Amikacin & Streptomycin Standard drugs for fungal strains: Ketoconazole and Amphotericin B. [Control (DMSO) = 6 mm].(44) Inhibition %=T–C/T×100, where T and C are represented as the diameter of microbial growth of the sample plates and the control plate (6 mm), respectively. Error limits ±2.5–5.0% (P ≤ 0.05).

CT-DNA = experiment: DNA binding by cyclic voltammetry; design: species or system calf thymus; details: for K[red]/K[oxi], (calcd): Nernst equation; for K[red]/K[oxi], found (I): from method I; for S (bp), binding site size: method II; for Kb method I, (oxi): oxidation; for Kb method I, red: reduction; for Es° = (Eb° − Ef°): shift of formal potential on DNA binding
Experimental: The CV titration for free substances was conducted at 10 μM at 25°C in the presence of Tris-HCl buffer solution (pH: 7.4). While CT-DNA increases (0–10 μM) in each sample solution, a shift in potential, including variations in the peak currents of anodic and cathodic sides, has been monitored.
The CV technique is one of the most important tools for investigating the DNA-complex adduct's binding mechanism. The CV properties of all test samples in the presence and absence of DNA were executed at a scan rate (v) 0.1 Vs^−1 with a potential range of +2 to −2 in a Tris-HCl (5 mM)/NaCl (50 mM) (pH = 7.2) solution. The M^1+/M^2+ redox couple is caused by complexes that reveal a single anodic and cathodic peak. […] (Figure S29 and Table 6).
ΔEP is peak-to-peak separation = (EPa − EPc); E°(or) E1/2 is denoted as formal electrode potential = 1/2 (EPa + EPc); Es°=(Eb° − Ef°)Eb° and Ef° are represented as the formal electrode potential of the M^1+/M^2+ couple in the bound and free forms, respectively. Es° = +19 mV (HL), +34 mV (1a), and +31 mV (2a). Ipa is anodic peak current, Ipc is cathodic peak current. K^1+ is binding constant of reduction process, K^2+ is binding constant of oxidation process, S is represented as binding site size of base pairs (bp) with a molecule of complex, Scan rate is 100 mV·s^−1, binding constant (Kb) values observed from the linear plots of log (1/[DNA]) vs. log (I/I0 − I) for oxidation and reduction, (I0 − IDNA)/IDNA = Cp/Cf versus [DNA] and Ip ^2 versus (Ipo ^2 −Ip ^2 )/[DNA] by methods I, II, and III, respectively.(24) DiffusioncoefficientD0=7.51×10^−5 SlopelogI0 −I/I=log DNA+logKb, where I0 and I are represented as the peak currents of the compound in the absence and presence of DNA.(25) log DNA=logI0 −I/I+log1/Kb log1/DNA=logI/I0−I+logKb, (26) I0 −I/I=KbDNA, (27) I0 −I/I=Cb/Cf, where Cf and Cb are denoted as the free substance concentration and DNA-interacted compound, respectively. (29) was obtained by comparing equations (27) and (28).(28) Cb/Cf=KbDNA, (29) Cb/Cf=Kbfreebasrpairs/S , (30) Cb/Cf=KbDNA/2 S +1.
S is denoted as binding site size (bp), and Kb are estimated from (31) with the help of S = (intercept/4)^1/2 and (Kb = 2S (slope/intercept), respectively. Nernst equations are as follows:(31) Es°=Eb°−Ef°=0.0591 /n logKred/Koxi, (32) Kred/Koxi=Ant. log nEb°−Ef°/0.0591.
E 1/2 or Eb° and Ef° are the formal electrode potentials of the M^1+/M^2+ couple in their bound and free forms, respectively.(33) Ip 2 =1/KbDNAIp0 2 −Ip 2 +Ip0 2 −DNA, where Ipo and Ip are denoted as the peak currents of the complexes (1–3) in the absence and presence of DNA.(34) Ipa=2.69×10^5 n^3/2 α^1/2 AC0 ∗D0 1/2 v^1/2 , (35) Ipa=13314.7D0 1/2 v^1/2 , where Ipa is denoted as the anodic peak current in amperes, n is represented as the number of electrons participating in the redox (M^1+/M^2+) process (n = 1), charge transfer coefficient (or) activation coefficient (α)≈0.5 for quasireversible systems, which also calculated from Bard–Faulkner relation(35a) α=47.7/EPa−EP/2.
C0^∗ ⟶ Bulk concentration of the compound, A is denoted as the cross-sectional area of the working electrode (glassy carbon) in cm^2 (A∼0.07 cm^2), D0 is denoted as diffusion coefficient (cm^2 s^−1) of the M^1+/M^2+ couple in the free and bound forms, respectively, and v is denoted as the potential scan rate at 0.1 Volt·s^−1. While the substances often bind to deoxyribonucleic acid through intercalation, the peak potential shifts in a positive direction. When the compounds bind to deoxyribonucleic acid via minor or major grooves or electrostatic attractions, the peak potential shifts occur in a negative direction. […]

SMILES	(inhibition %) (Bacillus cereus)	diameter of the clear zone inhibition (Bacillus cereus)	Kb method II (CT-DNA)	Kb method III (CT-DNA)	K[red]/K[oxi], (calcd) (CT-DNA)	K[red]/K[oxi], found (I) (CT-DNA)	S (bp), binding site size (CT-DNA)	Kb method I, (oxi) (CT-DNA)	Kb method I, red (CT-DNA)	Es° = (Eb° − Ef°) (CT-DNA)
Oc1ccccc1N=Cc1ccc(N2CCOCC2)cc1 [(HL), 2-(4-morpholinobenzylideneamino)phenol]	33%	09 mm	2443 M⁻¹	4837 M⁻¹	2.0964	0.7214	0.452 bp	5280 M⁻¹	3809 M⁻¹	+19 mV
[Cu+2].[O-]c1ccccc1N=Cc1ccc(N2CCOCC2)cc1.[O-]c1ccccc1N=Cc1ccc(N2CCOCC2)cc1.c1ccc(-c2ccccn2)nc1 [(1a), [Cu(L)2(bpy)]]	54%	13 mm	70773 M⁻¹	21567 M⁻¹	3.76	0.8628	0.123 bp	25330 M⁻¹	21854 M⁻¹	+34 mV
[O-]c1ccccc1N=Cc1ccc(N2CCOCC2)cc1.[O-]c1ccccc1N=Cc1ccc(N2CCOCC2)cc1.[Zn+2].c1ccc(-c2ccccn2)nc1 [(2a), [Zn(L)2(bpy)]]	57%	14 mm	27693 M⁻¹	18486 M⁻¹	3.34	0.8268	0.270 bp	24610 M⁻¹	20348 M⁻¹	+31 mV
